For 19 compounds, pest or weed control results are on record in patent US9686984B2, “Macrocyclic picolinamides as fungicides” (DOW AGROSCIENCES LLC, priority 2014, dated 2017).

The test system of one assay is Zymoseptoria tritici. The experiment in a line: Leaf Blotch of Wheat (SEPTTR) disease control on wheat seedlings. The assay is classed as in vivo. The conditions noted are these: for pest or weed control at 121.5 g/ha: Low Volume (121.5 g/H); for pest or weed control at 100 µg/mL: High Volume (100 ppm). The method, then: Example A: Evaluation of Fungicidal Activity: Leaf Blotch of Wheat (Mycosphaerella graminicola; Anamorph: Zymoseptoria tritici; Bayer code […]) Technical grades of materials were dissolved in acetone, which were then mixed with nine volumes of water containing 110 ppm Triton X-100. The fungicide solutions were applied onto wheat seedlings using an automated booth sprayer to run-off. All sprayed plants were allowed to air dry prior to further handling. All fungicides were evaluated using the aforementioned method for their activity vs. all target diseases, unless stated otherwise. Wheat leaf blotch and brown rust activity were also evaluated using track spray applications, in which case the fungicides were formulated as EC formulations, containing 0.1% Trycol 5941 in the spray solutions. Wheat plants (variety Yuma) were grown from seed in a greenhouse in 50% mineral soil/50% soil-less Metro mix until the first leaf was fully emerged, with 7-10 seedlings per pot. These plants were inoculated with an aqueous spore suspension of Septoria tritici either prior to or after fungicide treatments. After inoculation the plants were kept in 100% relative humidity (one day in a dark dew chamber followed by two to three days in a lighted dew chamber at 20° C.) to permit spores to germinate and infect the leaf. The plants were then transferred to a greenhouse set at 20° C. for disease to develop. When disease symptoms were fully expressed on the 1st leaves of untreated plants, infection levels were assessed on a scale of 0 to 100 percent disease severity. Percent disease control was calculated using the ratio of disease severity on treated plants relative to untreated plants.

The test system of another assay is Puccinia triticina. Briefly: Wheat Brown Rust (PUCCRT) disease control on wheat seedlings. The assay is classed as in vivo. The conditions noted are these: for pest or weed control at 121.5 g/ha: Low Volume (121.5 g/H); for pest or weed control at 100 µg/mL: High Volume (100 ppm). On the procedure:
Technical grades of materials were dissolved in acetone, which were then mixed with nine volumes of water containing 110 ppm Triton X-100. The fungicide solutions were applied onto wheat seedlings using an automated booth sprayer to run-off. All sprayed plants were allowed to air dry prior to further handling. All fungicides were evaluated using the aforementioned method for their activity vs. all target diseases, unless stated otherwise. Wheat leaf blotch and brown rust activity were also evaluated using track spray applications, in which case the fungicides were formulated as EC formulations, containing 0.1% Trycol 5941 in the spray solutions. Wheat plants (variety Yuma) were grown from seed in a greenhouse in 50% mineral soil/50% soil-less Metro mix until the first leaf was fully emerged, with 7-10 seedlings per pot. These plants were inoculated with an aqueous spore suspension of Septoria tritici either prior to or after fungicide treatments. After inoculation the plants were kept in 100% relative humidity (one day in a dark dew chamber followed by two to three days in a lighted dew chamber at 20° C.) to permit spores to germinate and infect the leaf. The plants were then transferred to a greenhouse set at 20° C. for disease to develop. When disease symptoms were fully expressed on the 1st leaves of untreated plants, infection levels were assessed on a scale of 0 to 100 percent disease severity. Percent disease control was calculated using the ratio of disease severity on treated plants relative to untreated plants. Example B: Evaluation of Fungicidal Activity: Wheat Brown Rust (Puccinia triticina; Synonym: Puccinia recondita f. sp. tritici; Bayer code PUCCRT) Wheat plants (variety Yuma) were grown from seed in a greenhouse in 50% mineral soil/50% soil-less Metro mix until the first leaf was fully emerged, with 7-10 seedlings per pot. These plants were inoculated with an aqueous spore suspension of Puccinia triticina either prior to or after fungicide treatments. After inoculation the plants were kept in a dark dew room at 22° C. with 100% relative humidity overnight to permit spores to germinate and infect the leaf. The plants were then transferred to a greenhouse set at 24° C. for disease to develop. Fungicide formulation, application and disease assessment followed the procedures as described in the Example A.

Setting [1] is: 24 h, 1 Day Protectant, read-out: SEPTTR disease control, 1 DP.
[2] abbreviates: 72 h, 3 Day Curative, read-out: SEPTTR disease control, 3 DC.
The mark [3] stands for this setting: 24 h, 1 Day Protectant, read-out: PUCCRT disease control, 1 DP.
Where [4] appears, read: 72 h, 3 Day Curative, read-out: PUCCRT disease control, 3 DC.

Where two headings read alike, the source gives them in different places.

On to `COc1ccnc(C(=O)N[C@H]2CCO[C@H](CCc3ccccc3)[C@@H](Cc3ccc(F)cc3)[C@H](C)OC2=O)c1OCOC(C)=O` [Compound 24, ((2-(((2R,3S,4S,7S)-3-(4-fluorobenzyl)-4-methyl-6-oxo-2-phenethyl-1,5-dioxonan-7-yl)carbamoyl)-4-methoxypyridin-3-yl)oxy)methyl acetate], for which the pest or weed control at 121.5 g/ha in the assay on Zymoseptoria tritici (setting [1]), with Zymoseptoria tritici (setting [2]), with Puccinia triticina (setting [3]) and in the assay with Puccinia triticina (setting [4]) was greater than 70% throughout.

Regarding `COCC[C@H]1OCC[C@H](NC(=O)c2nccc(OC)c2OCOC(C)=O)C(=O)O[C@@H](C)[C@@H]1Cc1ccc(F)cc1` [Compound 25], the pest or weed control at 121.5 g/ha with Zymoseptoria tritici (setting [1]) is less than 70%; with Zymoseptoria tritici (setting [2]) it was less than 70%; with Puccinia triticina (setting [3]), greater than 70%; with Puccinia triticina (setting [4]), greater than 70%.

`COc1ccnc(C(=O)N[C@H]2CCOC[C@@H](Cc3ccccc3-c3ccccc3)[C@H](C)OC2=O)c1OCOC(C)=O` [Compound 28]: the pest or weed control at 121.5 g/ha in the assay on Zymoseptoria tritici (setting [1]), in the assay on Zymoseptoria tritici (setting [2]), with Puccinia triticina (setting [3]) and in the assay with Puccinia triticina (setting [4]) was greater than 70% each time.

For `COc1ccnc(C(=O)N[C@H]2CCOC[C@@H](CCC(C)C)[C@H](C)OC2=O)c1OCOC(C)=O` [Compound 30], the pest or weed control at 121.5 g/ha in the assay with Zymoseptoria tritici (setting [1]), in the assay on Zymoseptoria tritici (setting [2]), in the assay with Puccinia triticina (setting [3]) and in the assay with Puccinia triticina (setting [4]) was greater than 70% throughout.

For `CCCC[C@H]1[C@H](C)OC(=O)[C@@H](NC(=O)c2nccc(OC)c2OCOC(C)=O)CCO[C@@H]1CCc1ccccc1` [Compound 31], the pest or weed control at 121.5 g/ha in the assay with Zymoseptoria tritici (setting [1]), in the assay on Zymoseptoria tritici (setting [2]), in the assay on Puccinia triticina (setting [3]) and in the assay on Puccinia triticina (setting [4]) was greater than 70% each time.

For `CCCC[C@H]1[C@H](C)OC(=O)[C@@H](NC(=O)c2nccc(OC)c2OCOC(C)=O)CCO[C@@H]1COC(=O)C(C)C` [Compound 32], the pest or weed control at 121.5 g/ha in the assay with Zymoseptoria tritici (setting [1]), in the assay with Zymoseptoria tritici (setting [2]), in the assay with Puccinia triticina (setting [3]) and in the assay on Puccinia triticina (setting [4]) was greater than 70% in each case.

In the case of `CCCC[C@H]1[C@H](C)OC(=O)[C@@H](NC(=O)c2nccc(OC)c2OCOC(C)=O)CCO[C@@H]1CC` [Compound 34], the pest or weed control at 121.5 g/ha was less than 70% with Zymoseptoria tritici (setting [1]), less than 70% in the assay on Zymoseptoria tritici (setting [2]), greater than 70% with Puccinia triticina (setting [3]) and greater than 70% in the assay on Puccinia triticina (setting [4]).

On to `CCCC[C@H]1[C@H](C)OC(=O)[C@@H](NC(=O)c2nccc(OC)c2OCOC(C)=O)CCO[C@@H]1COc1ccccc1` [Compound 35], for which the pest or weed control at 121.5 g/ha in the assay with Zymoseptoria tritici (setting [1]), in the assay with Zymoseptoria tritici (setting [2]), in the assay on Puccinia triticina (setting [3]) and in the assay on Puccinia triticina (setting [4]) was greater than 70% in each case.

With `COc1ccnc(C(=O)N[C@H]2CCOC[C@@H](Cc3ccccc3)[C@H](C)OC2=O)c1OCOC(=O)C(C)C` [Compound 36], the pest or weed control at 121.5 g/ha was greater than 70% in the assay with Zymoseptoria tritici (setting [1]), less than 70% in the assay on Zymoseptoria tritici (setting [2]), greater than 70% in the assay on Puccinia triticina (setting [3]) and greater than 70% in the assay on Puccinia triticina (setting [4]).

On to `COc1ccnc(C(=O)N[C@H]2CCO[C@H](Cc3ccccc3)[C@@H](Cc3ccccc3)[C@H](C)OC2=O)c1OCOC(=O)C(C)C` [Compound 37, ((2-(((2R,3S,4S,7S)-2,3-dibenzyl-4-methyl-6-oxo-1,5-dioxonan-7-yl)carbamoyl)-4-methoxypyridin-3-yl)oxy)methyl isobutyrate], for which the pest or weed control at 121.5 g/ha with Zymoseptoria tritici (setting [1]), in the assay on Zymoseptoria tritici (setting [2]), with Puccinia triticina (setting [3]) and in the assay on Puccinia triticina (setting [4]) was greater than 70% throughout.

`COc1ccnc(C(=O)N[C@H]2CCO[C@H](CCc3ccccc3)[C@@H](Cc3ccc(F)cc3)[C@H](C)OC2=O)c1OCOC(=O)C(C)C` [Compound 38]: the pest or weed control at 121.5 g/ha with Zymoseptoria tritici (setting [1]), in the assay on Zymoseptoria tritici (setting [2]), in the assay on Puccinia triticina (setting [3]) and with Puccinia triticina (setting [4]) was greater than 70% each time.

Regarding `CCCC[C@H]1[C@H](C)OC(=O)[C@@H](NC(=O)c2nccc(OC)c2OCOC(=O)C(C)C)CCO[C@@H]1COc1ccccc1` [Compound 41], the pest or weed control at 121.5 g/ha in the assay on Zymoseptoria tritici (setting [1]), with Zymoseptoria tritici (setting [2]), in the assay with Puccinia triticina (setting [3]) and in the assay on Puccinia triticina (setting [4]) was greater than 70% each time.

As to `CCOCC(=O)OCOc1c(OC)ccnc1C(=O)N[C@H]1CCOC[C@@H](Cc2ccccc2)[C@H](C)OC1=O` [Compound 42, ((2-(((3R,4S,7S)-3-benzyl-4-methyl-6-oxo-1,5-dioxonan-7-yl)carbamoyl)-4-methoxypyridin-3-yl)oxy)methyl 2-ethoxyacetate], the pest or weed control at 121.5 g/ha with Zymoseptoria tritici (setting [1]), with Zymoseptoria tritici (setting [2]), with Puccinia triticina (setting [3]) and in the assay with Puccinia triticina (setting [4]) was greater than 70% throughout.

`CCOCC(=O)OCOc1c(OC)ccnc1C(=O)N[C@H]1CCO[C@H](Cc2ccccc2)[C@@H](Cc2ccccc2)[C@H](C)OC1=O` [Compound 44]: the pest or weed control at 121.5 g/ha in the assay with Zymoseptoria tritici (setting [1]), in the assay with Zymoseptoria tritici (setting [2]), with Puccinia triticina (setting [3]) and in the assay with Puccinia triticina (setting [4]) was greater than 70% throughout.

As for `CCCC[C@H]1[C@H](C)OC(=O)[C@@H](NC(=O)c2nccc(OC)c2OCOC(=O)COCC)CCO[C@@H]1CCc1ccccc1` [Compound 45], the pest or weed control at 121.5 g/ha with Zymoseptoria tritici (setting [1]), with Zymoseptoria tritici (setting [2]), with Puccinia triticina (setting [3]) and in the assay on Puccinia triticina (setting [4]) was greater than 70% in each case.

Take `CCCC[C@H]1[C@H](C)OC(=O)[C@@H](NC(=O)c2nccc(OC)c2OCOC(=O)COCC)CCO[C@@H]1CC` [Compound 46]: the pest or weed control at 121.5 g/ha is greater than 70% in the assay on Zymoseptoria tritici (setting [1]), less than 70% in the assay on Zymoseptoria tritici (setting [2]), greater than 70% in the assay with Puccinia triticina (setting [3]) and greater than 70% in the assay with Puccinia triticina (setting [4]).

Regarding `CCCC[C@H]1[C@H](C)OC(=O)[C@@H](NC(=O)c2nccc(OC)c2OCOC(=O)COCC)CCO[C@@H]1COc1ccccc1` [Compound 47], the pest or weed control at 121.5 g/ha with Zymoseptoria tritici (setting [1]), in the assay with Zymoseptoria tritici (setting [2]), in the assay on Puccinia triticina (setting [3]) and in the assay on Puccinia triticina (setting [4]) was greater than 70% in each case.

Consider `CCOCC(=O)Oc1c(OC)ccnc1C(=O)N[C@H]1CCOC[C@@H](Cc2ccccc2)[C@H](C)OC1=O` [Compound 48, 2-(((3R,4S,7S)-3-benzyl-4-methyl-6-oxo-1,5-dioxonan-7-yl)carbamoyl)-4-methoxypyridin-3-yl 2-ethoxyacetate], for which the pest or weed control at 121.5 g/ha in the assay on Zymoseptoria tritici (setting [1]) was less than 70%; in the assay on Zymoseptoria tritici (setting [2]) it was less than 70%; in the assay on Puccinia triticina (setting [3]) it was greater than 70%; in the assay with Puccinia triticina (setting [4]), greater than 70%.

As to `CC[C@H]1OCC[C@H](NC(=O)c2nccc(OC)c2O)C(=O)O[C@@H](C)[C@@H]1Cc1ccc(F)cc1` [Compound 55], the pest or weed control at 100 µg/mL in the assay on Zymoseptoria tritici (setting [1]), in the assay with Zymoseptoria tritici (setting [2]), in the assay on Puccinia triticina (setting [3]) and in the assay on Puccinia triticina (setting [4]) was greater than 70% in each case.
